“Also recorded” adds a separate entry of the source. Each block holds one compound with its values, some of them ahead of it.
Columns and labels:
Format in all cases: cell-based
[1] = test system: Drp1-Ser616 phosphorylation; experiment: Western blot of Drp1 Ser616 phosphorylation in platelets; details: for Drp1 phosphorylation at Ser616 elicited by the agent: platelets incubated with the agent; for Effect on SFLLRN-induced (PAR1-mediated) Drp1-Ser616 phosphorylation: platelets
[2] = test system: Drp1-Ser616 phosphorylation; experiment: Drp1 ratio assay with chemiluminescence format; details: ADP 20 μM; for Time to maximum Drp1 ratio after exposure to agonist: arachidonic acid 500 μg/mL, SFLLRN 25 μM, elevated by 5 minutes
Method: Samples were subsequently lysed and assessed by either colorimetric or chemiluminescence ELISAs. […] Samples were activated with the indicated platelet agonist [A: ADP (20 μM); […] Samples were left at room temperature for the indicated amount of time prior to freezing (−80° C.) and were subsequently analyzed using the Drp1 ratio assay with a chemiluminescence format. […] FIGS. 12A-12C show activation time studies with various platelet agonists. Platelets were exposed to agonists and subsequently analyzed using the Drp1 ratio assay with a chemiluminescence format.

[3] = test system: Drp1-Ser637 phosphorylation; experiment: Western blot of Drp1 Ser637 phosphorylation in platelets
[4] = test system: Drp1-Ser616 phosphorylation; experiment: MAP kinase inhibition studies, ELISA of agonist-induced Drp1-Ser616 phosphorylation in twice washed platelets; details: agonists SFLLRN, U46619, collagen, ADP or AYPGKF; SB203580 20 μM, PD0325901 5 μM, SP600125 5 μM
Method: Using twice washed platelets, 400 μL aliquots were incubated at 37° C. for 30 min with SB203580 (20 μM), PD0325901 (5 μM), SP600125 (5 μM) or left untreated and then activated with respective agonist for 10 min at 37° C. Subsequently, 100 μL of 5×RIPA buffer was added and samples were lysed on ice for minimum of 15 min. Samples were stored at −80° C. until assayed by ELISA.
(§1) Capture antibody (Ms Drp1 mAb) diluted in Tris-buffered saline (TBS) was incubated on plates at RT (2 hrs) or at 4° C. overnight. […] Wells were blocked with 3% BSA in TBST for a minimum of 1.5 hrs. […] Wells were again washed with TBST and incubated with either Rb Drp1 or p-Drp1 (Ser616) mAb at RT for 1 hr.

[5] = test system: Drp1-Ser616 phosphorylation; experiment: Drp1-Ser616 phosphorylation assay in whole blood; details: for Effect on SFLLRN-induced phospho-Drp1-Ser616 signal: whole blood; for Stimulation of Drp1-Ser616 phosphorylation: whole blood (thrombin: whole blood and platelet rich plasma)
[6] = test system: Drp1-Ser616 phosphorylation; experiment: Arachidonic acid-induced Drp1-Ser616 phosphorylation in platelets, ELISA dose response; details: Platelet; [arachidonic acid]=10 μg/mL; read-out: IC50, inhibition of arachidonic acid-induced phosphorylation of Drp1-Ser616
Method: Dilutions of Tyrode's buffer+3 mM aspirin were prepared. A modified platelet wash protocol was then performed. PRP [supplemented with 20% ACD (v/v) and PGE1 (1 μM)] was spun at 800 g for 12 min. After removal of the supernatant, platelet pellet was resuspended in Tyrode's buffer and allowed to rest at 37° C. for minimum of 25 min. Platelets were counted by Hemavet and were again supplemented with ACD and PGE1 before being aliquoted into microcentrifuge tubes and spun at 800 g for 12 min. Aliquots were of sufficient volume to permit a final platelet count of approximately 4×10^5/μL when platelet pellet was resuspended in 400 μL of Tyrode's buffer or Tyrode's buffer/aspirin dilution. After resuspension, samples were incubated at 37° C. for 1 hr before being activated for 10 min at 37° C. with arachidonic acid (Bio Data Corp. Horsham, PA) at a final concentration of 10 μg/mL. Samples were lysed with 100 μL 5×RIPA buffer on ice for a minimum of 15 min before being stored at −80° C. until assayed by ELISA.
as §1

[7] = test system: Drp1-Ser616 phosphorylation; experiment: SFLLRN-induced Drp1-Ser616 phosphorylation in washed platelets, ELISA dose response (phospho-Drp1-Ser616/total Drp1); details: Platelet; read-out: IC50, inhibition of SFLLRN-induced Drp1-Ser616 phosphorylation
Method: Serial dilutions of Vorapaxar and Cangrelor were prepared in DMSO. […] Vehicle only samples were also prepared and incubated at 37° C. Samples were subsequently lysed with 5×RIPA buffer and stored at −80° C. until assayed by ELISA.
as §1

platelet aggregation = experiment: Platelet aggregometry, ADP-activated platelets; details: ADP 20 μM, compared with Drp1 ratio assay

Compound: Nc1ncnc2c1ncn2[C@@H]1O[C@H](COP(=O)(O)OP(=O)(O)O)[C@@H](O)[C@H]1O [ADP]
Drp1 phosphorylation at Ser616 elicited by the agent [1]: resulted in 5616-Drp1 phosphorylation
Time to maximum Drp1 ratio after exposure to agonist [2]: approximately 12. 5 minutes

Compound: CCCCCCOC(=O)[C@]1(O)C[C@@H]2O[C@@]1(C)n1c3ccccc3c3c4c(c5c6ccccc6n2c5c31)C(=O)NC4 [KT5720]
Effect on forskolin-mediated Drp1-Ser637 phosphorylation [3]: completely abolished

Compound: CNc1nc(Cl)nc2c1ncn2CC(COC(=O)C(C)(C)C)COC(=O)C(C)(C)C [MRS 2395]
Effect on ADP-induced Drp1-Ser616 phosphorylation ([1]; platelets incubated with ADP): inhibited

Compound: O=C(NOC[C@H](O)CO)c1ccc(F)c(F)c1Nc1ccc(I)cc1F [PD0325901]
Effect on agonist-induced Drp1-Ser616 phosphorylation [4]: modest inhibition

Compound: Cn1cc(C2=C(c3cn(CCCSC(=N)N)c4ccccc34)C(=O)NC2=O)c2ccccc21 [Ro 31-8220]
Effect on SFLLRN-induced (PAR1-mediated) Drp1-Ser616 phosphorylation [1]: failed to inhibit

Compound: C[S+]([O-])c1ccc(-c2nc(-c3ccncc3)c(-c3ccc(F)cc3)[nH]2)cc1 (stereo not shown) [SB203580]
Effect on SFLLRN-induced (PAR1-mediated) Drp1-Ser616 phosphorylation [1]: inhibited
Effect on agonist-induced Drp1-Ser616 phosphorylation [4]: potently blocked
Effect on SFLLRN-induced phospho-Drp1-Ser616 signal [5]: inhibited

Compound: Oc1c2ccccc2c2c3c(cccc13)N=N2 [SP600125]
Effect on agonist-induced Drp1-Ser616 phosphorylation [4]: failed to inhibit

Compound: CCCCC[C@H](O)/C=C/[C@@H]1[C@@H](C/C=C\CCCC(=O)O)[C@H]2CO[C@@H]1C2 [U46619]
Drp1 phosphorylation at Ser616 elicited by the agent [1]: Phosphorylation of Drp1 at S616 was observed
Stimulation of Drp1-Ser616 phosphorylation [5]: significant stimulation

Compound: CCCCC/C=C\C/C=C\C/C=C\C/C=C\CCCC(=O)O [arachidonic acid]
Stimulation of Drp1-Ser616 phosphorylation [5]: significant stimulation
Time to maximum Drp1 ratio after exposure to agonist [2]: approximately 12. 5 minutes

IC50 [6]: ~1000 nM
Compound: CC(=O)Oc1ccccc1C(=O)O [aspirin, acetylsalicylic acid]

IC50 [7]: ~2 nM
Compound: CSCCNc1nc(SCCC(F)(F)F)nc2c1ncn2[C@@H]1O[C@H](COP(=O)(O)OP(=O)(O)C(Cl)(Cl)P(=O)(O)O)[C@@H](O)[C@H]1O [cangrelor]
Sensitivity of platelet aggregometry to inhibition (platelet aggregation): equally sensitive
Sensitivity of Drp1 ratio assay to inhibition ([2]; compared with platelet aggregometry): equally sensitive

Compound: O=C1CCc2cc(OCCCCc3nnnn3C3CCCCC3)ccc2N1 [cilostazol]
Effect on SFLLRN-induced (PAR1-mediated) Drp1-Ser616 phosphorylation [1]: blocks; also recorded: sensitive; also recorded: prevents phophorylation at Ser616

Compound: COC(=O)[C@H](c1ccccc1Cl)N1CCc2sccc2C1 [clopidogrel]
Effect on SFLLRN-induced phospho-Drp1-Ser616 signal [5]: inhibited

IC50 [7]: ~5 nM
Compound: CCOC(=O)N[C@@H]1CC[C@@H]2[C@@H](C1)C[C@H]1C(=O)O[C@H](C)[C@H]1[C@H]2/C=C/c1ccc(-c2cccc(F)c2)cn1 [vorapaxar]
Effect on SFLLRN-induced phospho-Drp1-Ser616 signal [5]: inhibited

Compound: SFLLRN
Drp1 phosphorylation at Ser616 elicited by the agent [1]: Phosphorylation of Drp1 at S616 was observed
Time at which phospho-Drp1-Ser616 signal reaches peak ([5]; following activation of platelets by SFLLRN (FIG. 6C)): 15 min
Increase in phospho-Drp1-Ser616 to total Drp1 ([5]; stimulation of whole blood): greater than 2 fold
Time to maximum Drp1 ratio after exposure to agonist [2]: approximately 12. 5 minutes

Compound: collagen
Drp1 phosphorylation at Ser616 elicited by the agent [1]: Phosphorylation of Drp1 at S616 was observed

Compound: thrombin
Stimulation of Drp1-Ser616 phosphorylation [5]: significant increases

— US12235278B2, “Compositions and methods for evaluation of antiplatelet drug sensitivity” (Beth Israel Deaconess Medical Center, Inc., priority 2018, dated 2025)
